Experimental data: patent US6737383B1, “Herbicidal oxadiazolidines” (priority 1999, dated 2004)

Experiments:
crabgrass = test: Test B pre/postemergence crabgrass; assay type: in vivo, Digitaria sanguinalis
Outline: (§1)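 Test chemicals in a non-phytotoxic solvent mixture with surfactant were sprayed preemergence onto planted seeds and postemergence onto plants 2 to 18 cm tall (1- to 4-leaf stage). After twelve to sixteen days in a greenhouse, injury was visually rated against untreated controls from 0 (no effect) to 10 (complete control).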

giant foxtail = test: Test B pre/postemergence giant foxtail; assay type: in vivo, Setaria faberii
Outline: as §1

wheat = test: Test B pre/postemergence wheat; assay type: in vivo, Triticum aestivum
Outline: as §1

duck salad = test: Test B flood test duck salad; assay type: in vivo, Heteranthera limosa; conditions: for Plant response rating, Ducksalad (0 to 10 scale, 0 is no effect, 10 is complete control) / Ducksalad plant response rating (0 to 10 scale, 0 is no effect, 10 is complete control): visual evaluation after twelve to sixteen days; for Ducksalad plant response rating (0 to 10 scale, 0 is no effect, 10 is complete control): under heading Pre-emergence
Outline: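 Flood test on plants grown to the 2-leaf stage; treated plants kept in greenhouse twelve to sixteen days, then visually rated against controls on a 0 (no effect) to 10 (complete control) scale.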

[1] = Postemergence, Rate 250 g/ha, scale 0 to 10
[2] = Postemergence, Rate 500 g/ha, scale of 0 to 10 where 0 is no effect and 10 is complete control
[3] = Preemergence, Rate 62 g/ha, scale 0 to 10 (0 no effect, 10 complete control)
[4] = Preemergence, Rate 125 g/ha, scale of 0 to 10 where 0 is no effect and 10 is complete control
[5] = Preemergence, Rate 250 g/ha, scale 0 to 10, 0 is no effect, 10 is complete control
[6] = Preemergence, Rate 500 g/ha, scale 0 to 10, 0 is no effect, 10 is complete control
[7] = Rate 62 g/ha, Postemergence, scale of 0 to 10 where 0 is no effect and 10 is complete control
[8] = Rate 125 g/ha, Postemergence, scale 0 to 10, 0 is no effect, 10 is complete control
[9] = Preemergence, Rate 62 g/ha, scale of 0 to 10 where 0 is no effect and 10 is complete control
[10] = Rate 62 g/ha, Postemergence, scale 0 to 10 (0 no effect, 10 complete control)
[11] = Rate 62 g/ha, flood test species, Pre-emergence
[12] = Rate 125 g/ha, flood test species
[13] = Rate 250 g/ha, Pre-emergence (flood test species), scale 0 to 10, 0 is no effect, 10 is complete control
[14] = Rate 500 g/ha, Pre-emergence, flood test species, scale 0 to 10 (0 no effect, 10 complete control)
[15] = Postemergence, Rate 31 g/ha, visual rating, scale 0 to 10 (0 no effect, 10 complete control)
[16] = Preemergence, Rate 31 g/ha, visual rating, scale 0 to 10 (0 no effect, 10 complete control)

Structure (SMILES)	Crabgrass plant response rating (crabgrass; [1])	Crabgrass plant response rating (crabgrass; [2])	Plant response rating, Crabgrass (crabgrass; [4])	Crabgrass plant response rating (crabgrass; [5])	Crabgrass plant response rating (crabgrass; [6])	Crabgrass plant response rating (crabgrass; [8])	Giant foxtail plant response rating (giant foxtail; [1])	Giant foxtail plant response rating (giant foxtail; [2])	Plant response rating, Giant foxtail (giant foxtail; [4])	Giant foxtail plant response rating (giant foxtail; [5])	Giant foxtail plant response rating (giant foxtail; [6])	Giant foxtail plant response rating (giant foxtail; [8])	Wheat plant response rating (wheat; [1])	Plant response rating, Wheat (wheat; [4])	Wheat plant response rating (wheat; [5])	Wheat plant response rating (wheat; [6])	Wheat plant response rating (wheat; [8])	Plant response rating, Crabgrass (crabgrass; [9])	Crabgrass plant response rating (crabgrass; [10])	Plant response rating, Giant foxtail (giant foxtail; [9])	also measured
C=CC[Si](C)(C)Cn1c(=O)on(C(=O)N(c2ccc(F)cc2)C(C)C)c1=O [Compound 426]	9	9	9	10	10	6	9	9	9	10	10	7	0	0	2	6	0				Plant response rating, Crabgrass (crabgrass; [3]): 8; Crabgrass plant response rating (crabgrass; [7]): 1; Plant response rating, Giant foxtail (giant foxtail; [3]): 9; Giant foxtail plant response rating (giant foxtail; [7]): 3; Wheat plant response rating (wheat; [2]): 2; Plant response rating, Wheat (wheat; [3]): 0; Ducksalad plant response rating (duck salad; Postemergence block (flood test species), Rate 250 g/ha, scale 0 to 10): 0; Ducksalad plant response rating (duck salad; Postemergence section (flood test species), Rate 500 g/ha, scale of 0 to 10 where 0 is no effect and 10 is complete control): 0; Ducksalad plant response rating (duck salad; Rate 62 g/ha, Postemergence (flood test species), scale of 0 to 10 where 0 is no effect and 10 is complete control): 0; Ducksalad plant response rating (duck salad; Rate 125 g/ha, Postemergence section (flood test species), scale 0 to 10, 0 is no effect, 10 is complete control): 0
CC(C)N(C(=O)n1oc(=O)n(CNC(=O)c2ccccc2)c1=O)c1ccc(F)cc1 [Compound 445]	3	7	2	3	9	1	1	2	0	5	9	0	0	0	0	0	0	0	0	0	Giant foxtail plant response rating (giant foxtail; [10]): 0; Wheat plant response rating (wheat; [2]): 0; Plant response rating, Wheat (wheat; [9]): 0; Wheat plant response rating (wheat; [10]): 0; Plant response rating, Ducksalad (0 to 10 scale, 0 is no effect, 10 is complete control) (duck salad; [11]): 0; Ducksalad plant response rating (0 to 10 scale, 0 is no effect, 10 is complete control) (duck salad; [12]): 0; Ducksalad plant response rating (duck salad; [13]): 0; Ducksalad plant response rating (duck salad; [14]): 0
COCC(OC)n1c(=O)on(C(=O)N(c2ccc(F)cc2)C(C)C)c1=O (centres unmarked) [Compound 446]	9	9	8	9	9	9	9	9	10	10	10	9	3	2	3	7	0	8	5	9	Giant foxtail plant response rating (giant foxtail; [10]): 6; Wheat plant response rating (wheat; [2]): 3; Plant response rating, Wheat (wheat; [9]): 0; Wheat plant response rating (wheat; [10]): 0; Plant response rating, Ducksalad (0 to 10 scale, 0 is no effect, 10 is complete control) (duck salad; [11]): 0; Ducksalad plant response rating (0 to 10 scale, 0 is no effect, 10 is complete control) (duck salad; [12]): 0; Ducksalad plant response rating (duck salad; [13]): 0; Ducksalad plant response rating (duck salad; [14]): 0
CC(C)N(C(=O)n1oc(=O)n(CC2=NOCCC2)c1=O)c1ccc(Cl)cc1 [Compound 450]	4		7	8		2	7		8	9		5	0	0	0		0	2	0	2	Crabgrass plant response rating (crabgrass; [15]): 0; Crabgrass plant response rating (crabgrass; [16]): 0; Giant foxtail plant response rating (giant foxtail; [15]): 0; Giant foxtail plant response rating (giant foxtail; [16]): 0; Giant foxtail plant response rating (giant foxtail; [10]): 2; Wheat plant response rating (wheat; [15]): 0; Plant response rating, Wheat (wheat; [9]): 0; Wheat plant response rating (wheat; [10]): 0; Ducksalad plant response rating (duck salad; Rate 31 g/ha, Pre-emergence section (flood test species), scale 0 to 10): 0; Plant response rating, Ducksalad (0 to 10 scale, 0 is no effect, 10 is complete control) (duck salad; [11]): 0; Ducksalad plant response rating (0 to 10 scale, 0 is no effect, 10 is complete control) (duck salad; [12]): 0; Ducksalad plant response rating (duck salad; [13]): 0
CC(C)N(C(=O)n1oc(=O)n(CCC[Si](C)(C)C)c1=O)c1ccc(F)cc1 [Compound 461]	0	2	0	0	3	0	0	0	0	0	3	0	0	0	0	0	0	0	0	0	Giant foxtail plant response rating (giant foxtail; [10]): 0; Plant response rating, Wheat (wheat; [9]): 0; Wheat plant response rating (wheat; [10]): 0; Plant response rating, Ducksalad (0 to 10 scale, 0 is no effect, 10 is complete control) (duck salad; [11]): 0; Ducksalad plant response rating (0 to 10 scale, 0 is no effect, 10 is complete control) (duck salad; [12]): 0; Ducksalad plant response rating (duck salad; [13]): 0; Ducksalad plant response rating (duck salad; [14]): 0
